How the values were obtained:
[1] = tested on: cardiomyocytes; assay: Isolated cardiomyocyte TUNEL staining; assay type: cell-based, mouse; details: 100 nM, 24 hours
Experimental: Myocyte isolations from neonatal mouse or rat pups were modified from previously described methods (Mohler e.g., 2007). To generate the primary cardiomyocyte cultures, hearts were dissected from P1 animals and placed in 1 mL of Ham's F-10. Atrial tissue was removed and the ventricular chambers were rinsed to remove any remaining blood. Hearts were transferred into 1.5 mL of 0.05% Trypsin, 200 μM EDTA in Ham's F-10 medium (Mediatech). Hearts were minced into approximately 20 small pieces using forceps and small scissors and incubated in the Trypsin/EDTA medium at 37° C. Following 15 min, the heart pieces were mixed by a Pasteur pipette and incubated for an additional 15 min. A mixture of 200 μL of soybean trypsin inhibitor (2 mg/mL; Worthington) and 200 μL of collagenase (0.2 mg/mL; 1980 units/mg; Sigma) was incubated with the cells for 35-50 min at 37° C. The cell suspension was pelleted, resuspended in “Complete Medium” (40% DMEM, 40% Ham's F-10, 20% FCS), and plated on plastic dishes. Following five hours, the non-adhered cells (cardiomyocytes) were aspirated from the plate, pelleted, resuspended in Complete Medium, and plated on Mattek tissue culture plates (fibronectin-coated; Roche). Cardiomyocytes were washed with Ham's F-10 and Medium was replaced with “Defined Medium” to prevent the growth of fibroblasts. 100× Defined Medium consists of 100 μg/mL insulin, 500 μg/mL transferrin, 100 nM LiCl, 100 nM NaSeO4, and 10 nM thyroxine. To ensure that pure populations of cardiomyocytes were obtained, cultures were immunolabeled with alpha-actinin Ig (cardiomyocyte-specific marker). Only cultures with >90% cardiomyocytes were used in experiments. (See FIG. 12.) Lentiviral treatments (shRNA, rescue constructs) and apoptosis inducing agents (Iso, AngII) were used for 24 hours. Cells were fixed in 4% paraformaldehyde, permeabilized in 0.1% Triton X-100 and sodium citrate, and stained using In Situ cell death detection kits, TMR Red (Roche). TUNEL stain assays were interpreted as previously described (Yang e.g., 2006). Nuclei were co-stained with DAPI. Investigators were blinded to the genetic identity and treatment of the mice in all studies.
Cardiomyocytes from mice that express an inhibitory peptide against CaMKII (AC3-I, Zhang e.g., 2005) were treated with 100 nM AngII for 24 hours in parallel with isolated cardiomyocytes from WT and p47^−/− mice. […] Activity assays for caspase-3, a downstream target enzyme in the CaMKII apoptotic signaling pathway in heart, recapitulated the results from the TUNEL assay (FIG. 7A).

[2] = tested on: cardiomyocytes; assay: ROS detection with DHE in cardiomyocytes; assay type: cell-based, mouse; details: 100 nM
Experimental: Changes in ROS levels in cultured primary cardiac myocytes after agonist stimulation were measured using the fluorogenic probe dihydroethidium (DHE, 5 μM, Molecular Probes), as previously described (Zimmerman e.g., 2004). DHE fluorescent images were acquired using confocal microscopy (Zeiss LSM510).
In order to validate the connection between AngII and ROS in this experimental model, isolated cardiomyocytes from WT and p47^−/− mice were treated with 100 nM AngII and monitored production of ROS by Imaging DHE, a fluorescent reporter for superoxide and hydrogen peroxide (FIG. 7C). Wild-type cardiomyocytes were incubated with fura-2 AM, a cell-permeant calcium indicator to observe changes in intracellular Ca^2+ ([Ca^2+]i).

[3] = tested on: oxCaMKII; assay: Western blot of blood samples for oxidized CaMKII; assay type: in vivo, mice; details: WT and MsrA−/− mice, sacrificed 6 hours later, N=1 per group
Description: In order to test whether the anti-oxCaMKII antiserum was suitable for detecting increased CaMKII oxidation in blood under disease conditions associated with enhanced oxidative stress, validated mouse models were utilized. […] (See FIG. 15). Western blot of blood samples and ImageJ analysis were used to quantify total and oxidized CaMKII. (See FIG. 15). […] Mice were exposed to cancer cells and treated with either saline or 2DG. Those mice that tailed to develop tumors after 60 days were labeled as controls. (See FIG. 16). Western blot of blood samples and ImageJ analysis were used to quantify total and oxidized CaMKII. (See FIG. 16). […] (See FIG. 16). Mice were divided into four groups based on the presence or absence of cancer and whether or not they received treatment. Western blot of blood samples and ImageJ analysis were used to quantify total and oxidized CaMKII. (See FIG. 18). Both cancer and varied treatments increase blood oxCaMKII in an additive manner.

Substance: angiotensin II (DRVYIHPF; Angiotensin-2; UniProt P01019 25-32, looked up) [AngII, oxidant stimulating agent in cardiac tissue]
- Percent of TUNEL positive nuclei ([1]; WT cells): significant increase
- Percent of TUNEL positive nuclei ([1]; p47−/− or AC3-I cardiomyocytes): no significant effect
- ROS production ([2]; WT cardiomyocytes): significant increase in ROS production
- ROS production (significant increase) ([2]; p47−/− cardiomyocytes): not
- Oxidized CaMKII in blood [3]: increased oxidized CaMKII
